The results in this text go back to ChEMBL document CHEMBL4038285, “Synthesis, molecular docking, antimycobacterial and antimicrobial evaluation of new pyrrolo[3,2-c]pyridine Mannich bases” (Eur J Med Chem, 2017).

Series [1] relates to Mycobacterium tuberculosis. The series is described as follows: Antimycobacterial activity against Mycobacterium tuberculosis H37Rv ATCC 27294 after 7 days by microplate alamar blue assay. Format: functional. The note with it: H37Rv ATCC 27294, 168 h. On the technique in general: Alamar Blue is a resazurin reagent that responds to reducing activity.
Series [2] can be described thus: Growth inhibition of human HEK293T cells at 50 ug/ml after 72 hrs by MTT assay relative to control. Format: cell-based, HEK-293T. As to conditions: read-out: GI. For orientation: Formazan colour is commonly taken as a measure of viable cells.
Series [3] in a line: Selectivity index, ratio of IC50 for human HEK293T cells to MIC for Mycobacterium tuberculosis H37Rv ATCC 27294. The class given is toxicity. The note with it: read-out: Selectivity Index.
For series [4], the system named is Bacillus flexus. The series is described as follows: Antibacterial activity against Bacillus flexus MTCC 2909 assessed as diameter of inhibition zone measured after 20 hrs by agar well diffusion method. The class given is functional, Priestia flexa. Background: Agar diffusion results depend on both activity and mobility in agar.
Another series relates to HEK-293T. In words: Growth inhibition of human HEK293T cells after 72 hrs by MTT assay. The class given is cell-based.
In series [5] the test system is Clostridium sporogenes. In words: Antibacterial activity against Clostridium sporogenes NICM 2559 assessed as diameter of inhibition zone measured after 20 hrs by agar well diffusion method. The class given is functional.
Series [6] deals with Bacillus flexus. In words: Antibacterial activity against Bacillus flexus MTCC 2909 after 24 hrs by broth microdilution method. Format: functional. The note with it: Priestia flexa, MTCC 2909, 24 h.
In series [7] the test system is Staphylococcus aureus. The series is described as follows: Antibacterial activity against Staphylococcus aureus NCIM 5345 assessed as diameter of inhibition zone measured after 20 hrs by agar well diffusion method. Format: functional.
Series [8] concerns Clostridium sporogenes. The series is described as follows: Antibacterial activity against Clostridium sporogenes NICM 2559 after 24 hrs by broth microdilution method. The class given is functional. As to conditions: NICM 2559, 24 h.
The next series has as its system Klebsiella pneumoniae. In words: Antibacterial activity against Klebsiella pneumoniae PTCC 1053 assessed as diameter of inhibition zone measured after 20 hrs by agar well diffusion method. Format: functional.
The test system of another series is Scopulariopsis sp. The series is described as follows: Antifungal activity against Scopulariopsis sp. MTCC 3553 assessed as diameter of inhibition zone after 4 days by agar well diffusion method. Format: functional.
The next series concerns Escherichia coli. In words: Antibacterial activity against Escherichia coli NCIM 2931 assessed as diameter of inhibition zone measured after 20 hrs by agar well diffusion method. Format: functional.
Series [9] relates to Streptococcus mutans. The series is described as follows: Antibacterial activity against Streptococcus mutans MTCC 890 after 24 hrs by broth microdilution method. The class given is functional. The note with it: MTCC 890, 24 h.
For a further series, the system named is Aspergillus terreus. In words: Antifungal activity against Aspergillus terreus MTCC 1782 assessed as diameter of inhibition zone after 4 days by agar well diffusion method. The class given is functional.
The subject of series [10] is Streptococcus mutans. In words: Antibacterial activity against Streptococcus mutans MTCC 890 assessed as diameter of inhibition zone measured after 20 hrs by agar well diffusion method. The class given is functional.
In series [11] the test system is Staphylococcus aureus. In words: Antibacterial activity against Staphylococcus aureus NCIM 5345 after 24 hrs by broth microdilution method. Format: functional. The note with it: NCIM 5345, 24 h.
For a further series, the system named is Pseudomonas sp. The series is described as follows: Antibacterial activity against Pseudomonas sp. NCIM 2872 assessed as diameter of inhibition zone measured after 20 hrs by agar well diffusion method. Format: functional.
The test system of a further series is Pseudomonas aeruginosa. The series is described as follows: Antibacterial activity against Pseudomonas aeruginosa MTCC 4727 assessed as diameter of inhibition zone measured after 20 hrs by agar well diffusion method. The class given is functional.

Converted amounts (≈) assume the structure as drawn. The source made the active and inactive calls. A value given as a limit tells only on which side of the number the result lay.

On to `CC[C@@H](CO)NCCN[C@@H](CC)CO` [ETHAMBUTOL], for which the MIC (commonly the smallest concentration in the dilution series that meets the test's criterion for growth inhibition) in series [1] amounted to 3.12 µg/mL (≈ 15.3 µM).
`CO[C@H]1/C=C/O[C@@]2(C)Oc3c(C)c(O)c4c(O)c(c(/C=N/N5CCN(C)CC5)c(O)c4c3C2=O)NC(=O)/C(C)=C\C=C\[C@H](C)[C@H](O)[C@@H](C)[C@@H](O)[C@@H](C)[C@H](OC(C)=O)[C@@H]1C` [RIFAMPIN] gave an MIC in [1] of 0.02 µg/mL (≈ 0.0243 µM).
`CN(CCc1ccccc1)Cc1c(CC2CCCCC2)[nH]c2ccnc(Cl)c12`: the inhibition at 72 h, 50 ug/ml in [2] is 19.1%. The selectivity ratio in series [3] is over 16. The “diameter of the inhibition zone (DIZ)” value with Bacillus flexus [4], with Clostridium sporogenes [5], with Staphylococcus aureus [7] and in the series on Streptococcus mutans [10] was 32 mm in each case. For the same compound, the IC50 (usually the concentration at which inhibition is half-maximal) in the series on HEK-293T is over 50 µg/mL. Also, the MIC in the series on Bacillus flexus [6] was 8 µg/mL (≈ 20.2 µM); with Clostridium sporogenes [8], 9 µg/mL (≈ 22.7 µM); with Streptococcus mutans [9], 10 µg/mL (≈ 25.3 µM); in series [1], 6.25 µg/mL (≈ 15.8 µM); in the series with Staphylococcus aureus [11] it was 10 µg/mL (≈ 25.3 µM). Besides, the “diameter of the inhibition zone (DIZ)” value in the series on Klebsiella pneumoniae, in the series on Scopulariopsis sp, in the series on Escherichia coli, in the series with Aspergillus terreus, in the series with Pseudomonas sp. and in the series on Pseudomonas aeruginosa was “inactive” in each case.
As for `CN[C@@H]1[C@H](O[C@H]2[C@H](O[C@H]3[C@H](O)[C@@H](O)[C@H](N=C(N)N)[C@@H](O)[C@@H]3N=C(N)N)O[C@@H](C)[C@]2(O)C=O)O[C@@H](CO)[C@H](O)[C@H]1O` [STREPTOMYCIN], the “diameter of the inhibition zone (DIZ)” value with Bacillus flexus [4], in the series on Clostridium sporogenes [5], with Staphylococcus aureus [7], in the series with Klebsiella pneumoniae, in the series on Escherichia coli and in the series with Streptococcus mutans [10] was 32 mm each time. In addition, the “diameter of the inhibition zone (DIZ)” value in the series with Pseudomonas sp. and in the series with Pseudomonas aeruginosa was 32 mm each time. The MIC was 1.5 µg/mL (≈ 2.58 µM) against Bacillus flexus [6], 1 µg/mL (≈ 1.72 µM) against Clostridium sporogenes [8], 0.5 µg/mL (≈ 0.86 µM) against Streptococcus mutans [9] and 2 µg/mL (≈ 3.44 µM) against Staphylococcus aureus [11]. Also, the “diameter of the inhibition zone (DIZ)” value in the series on Scopulariopsis sp and in the series with Aspergillus terreus was “inactive” in each case.
Turning to NYSTATIN, the “diameter of the inhibition zone (DIZ)” value in the series with Bacillus flexus [4] (Priestia flexa), with Clostridium sporogenes [5], in the series on Staphylococcus aureus [7], in the series with Klebsiella pneumoniae, with Escherichia coli and with Streptococcus mutans [10] was “inactive” each time. For the same compound, the “diameter of the inhibition zone (DIZ)” value in the series with Pseudomonas sp. and in the series with Pseudomonas aeruginosa was “inactive” each time. The inhibition zone (IZ) with Scopulariopsis sp and in the series with Aspergillus terreus was 32 mm each time.
Consider `Clc1nccc2[nH]c(CC3CCCCC3)c(CN3CCOCC3)c12`, for which the inhibition at 72 h, 50 ug/ml in [2] is 21.2%. The selectivity ratio in series [3] lay within 1 to 2. The “diameter of the inhibition zone (DIZ)” value with Bacillus flexus [4], with Clostridium sporogenes [5], with Staphylococcus aureus [7] and with Streptococcus mutans [10] was 20 mm in each case. The compound also gave an IC50 with HEK-293T of over 50 µg/mL. Further, the minimum inhibitory concentration (MIC) turned out to be 40 µg/mL (≈ 115 µM) in the series with Bacillus flexus [6]; 40 µg/mL (≈ 115 µM) in the series with Clostridium sporogenes [8]; 30 µg/mL (≈ 86.2 µM) against Streptococcus mutans [9]; 25 µg/mL (≈ 71.9 µM) in series [1]; 35 µg/mL (≈ 101 µM) in the series with Staphylococcus aureus [11]. Besides, the “diameter of the inhibition zone (DIZ)” value in the series on Klebsiella pneumoniae, with Scopulariopsis sp, with Escherichia coli, with Aspergillus terreus, in the series on Pseudomonas sp. and in the series with Pseudomonas aeruginosa was “inactive” throughout.
Consider `Clc1nccc2[nH]c(-c3ccccc3)c(CN3CCOCC3)c12`, for which the “diameter of the inhibition zone (DIZ)” value in the series with Bacillus flexus [4], in the series with Clostridium sporogenes [5], with Staphylococcus aureus [7] and with Streptococcus mutans [10] was 10 mm throughout. For the same compound, the MIC in the series on Bacillus flexus [6] is over 50 µg/mL; against Clostridium sporogenes [8], over 50 µg/mL; with Streptococcus mutans [9], over 50 µg/mL; in series [1] it was over 25 µg/mL; against Staphylococcus aureus [11] it was over 50 µg/mL. Further, the “diameter of the inhibition zone (DIZ)” value with Klebsiella pneumoniae, in the series with Scopulariopsis sp, with Escherichia coli, in the series on Aspergillus terreus, with Pseudomonas sp. and in the series on Pseudomonas aeruginosa was “inactive” in each case.
With `OCCN1CCN(Cc2c(-c3ccccc3)[nH]c3ccnc(Cl)c23)CC1`, the “diameter of the inhibition zone (DIZ)” value in the series on Bacillus flexus [4], in the series on Clostridium sporogenes [5], in the series with Staphylococcus aureus [7] and in the series with Streptococcus mutans [10] was 10 mm each time. Also, the MIC was over 50 µg/mL in the series on Bacillus flexus [6]; over 50 µg/mL with Clostridium sporogenes [8]; over 50 µg/mL in the series with Streptococcus mutans [9]; over 25 µg/mL in series [1]; over 50 µg/mL against Staphylococcus aureus [11]. The “diameter of the inhibition zone (DIZ)” value in the series with Klebsiella pneumoniae, in the series with Scopulariopsis sp, in the series on Escherichia coli, with Aspergillus terreus, with Pseudomonas sp. and in the series with Pseudomonas aeruginosa was “inactive” each time.
The compound `NNC(=O)c1ccncc1` [ISONIAZID] showed an MIC in [1] of 0.36 µg/mL (≈ 2.63 µM).
